Measured values reported in PubChem BioAssay AID1409 (The Scripps Research Institute Molecular Screening Center, 2008).
Activity calls are given as the source filed them. The rule behind the calls is not given here.

tested on: Cell-based STAT3 reporter inhibition, counterscreen; assay: STAT3 inhibitors in reporter cells, dose response, counter-screen for STAT1 inhibitor project (AID 1409)

SMILES	IC50
CCOC(=O)N1CCN(C(=O)/C=C/c2c(C)nn(-c3ccc(F)cc3)c2Cl)CC1	37.1 µM (inactive)
Cc1ccc2[nH]c3c(N4CCN(Cc5ccccc5)CC4)ncnc3c2c1	16.2 µM (inactive)
COc1ccc(-n2c(SCc3cccnc3)nc3c(c2=O)SCC3)cc1OC	> 55.7 µM (inactive)
Cc1cc(NC(=O)CCCS(=O)(=O)c2nc(-c3cccs3)cc(C(F)(F)F)n2)no1	> 55.7 µM (inactive)
COc1ccccc1-c1cc(C(F)(F)F)nc(S(=O)(=O)CCCC(=O)N2CCOCC2)n1	30.9 µM (inactive)
CN1CCN(Cc2nc3ccccc3c(=O)n2Cc2nc(-c3ccccc3F)cs2)CC1	> 55.7 µM (inactive)
COc1ccc(CCNc2ncnc3cc(OC)c(OC)cc23)cc1OC	14.6 µM (inactive)
O=C(NNC(=O)c1cccc(S(=O)(=O)N2CCc3ccccc32)c1)c1ccccc1	15.9 µM (inactive)
COc1ccc(CCNC(=O)Cn2c(=O)n(-c3ccc(F)cc3)c(=O)c3sccc32)cc1OC	> 55.7 µM (inactive)
O=C(c1ccc(Cl)cc1)N1CCN(c2ccnc3cc(Cl)ccc23)CC1	22 µM (inactive)
CS(=O)(=O)c1nc(-c2ccco2)cc(C(F)(F)F)n1	38 µM (inactive)
CCOC(=O)N1CCN(C(=O)c2ccc(-n3c(=S)[nH]c4ccccc4c3=O)cc2)CC1	> 55.7 µM (inactive)
CC1C(=O)NN=C1C(=O)N/N=C\C(Br)=C\c1ccccc1 (stereo not drawn)	23.8 µM (inactive)
O=C(c1ccco1)N1CCN(c2ncnc3c2[nH]c2ccc(Br)cc23)CC1	25.6 µM (inactive)
CN1CCN(Cc2nc3ccccc3c(=O)n2Cc2nc(-c3ccc4ccccc4c3)cs2)CC1	49.2 µM (inactive)
CS(=O)(=O)c1nc(-c2ccc(F)cc2)cc(C(F)(F)F)n1	23.8 µM (inactive)
COc1ccccc1-c1cc(C(F)(F)F)nc(S(=O)(=O)CCCC(=O)Nc2cccnc2Cl)n1	34.6 µM (inactive)
COC(=O)C1=CN(Cc2ccc(OC)c(OC)c2)C=C(C(=O)OC)C1c1cccs1	> 55.7 µM (inactive)
COc1ccc(CNc2ncnc3cc(Cl)ccc23)cc1OC	> 18.6 µM (inactive)
COc1ccccc1-c1cc(C(F)(F)F)nc(S(C)(=O)=O)n1	31.8 µM (inactive)
Cc1cccc(/C=C(\c2nc3ccccc3[nH]2)S(=O)(=O)c2ccccc2)c1	20.3 µM (inactive)
COc1ccc(-c2cc(C(F)(F)F)nc(S(=O)(=O)CCCC(=O)Nc3cccnc3Cl)n2)cc1OC	32.6 µM (inactive)
O=C(CSc1nc2ccccc2c(=O)[nH]1)c1ccc(O)cc1O	> 55.7 µM (inactive)
CCOC(=O)c1c(C)nc2sc3c(=O)n(-c4ccc(OC)cc4)nnc3c2c1-c1ccc(OC)cc1	> 55.7 µM (inactive)
CC1(C)Cc2c(ccc3ccccc23)C2=C(C(=O)N3CCCC3)C(=O)C(=O)N21	> 55.7 µM (inactive)
Cc1ccc(S(=O)(=O)N2CCN(C(C(=O)Nc3ccc(F)cc3)c3ccccc3)CC2)cc1 (stereo not drawn)	> 55.7 µM (inactive)
COc1ccc(-c2cc(C(F)(F)F)nc(S(=O)(=O)CCCC(=O)Nc3cccc(O)c3)n2)cc1OC	31 µM (inactive)

SMILES	IC50
COc1ccccc1CNc1ncnc2cc(Cl)ccc12	> 55.7 µM (inactive)
Cc1ccc(-c2csc3ncnc(Sc4nnc(CN5CCCCCC5=O)o4)c23)cc1	12.2 µM (inactive)
Cn1nnnc1Sc1ncnc2scc(-c3ccc(F)cc3)c12	22.6 µM (inactive)
CCN(CC)S(=O)(=O)c1ccc(N2CCOCC2)c(NC(=O)c2cc(-c3ccccn3)nc3ccccc23)c1	9.73 µM
Cc1ccccc1-c1noc(N)c1C#N	> 55.7 µM (inactive)
Cc1ccc(-n2nc(C(=O)O)c3ccccc3c2=O)cc1C	> 55.7 µM (inactive)
Cc1ccc(C2=Nc3c(ccc4ccccc34)C(c3ccncc3)=NN2)cc1	> 55.7 µM (inactive)
CN1CCN(Cc2nc3ccccc3c(=O)n2Cc2nc(-c3cccc([N+](=O)[O-])c3)cs2)CC1	> 55.7 µM (inactive)
COC(=O)CCS(=O)(=O)c1nc(-c2ccccc2)cc(C(F)(F)F)n1	25.5 µM (inactive)
COc1ccc(-c2cc(C(F)(F)F)nc(S(=O)(=O)CCCC(=O)Nc3cc(C)on3)n2)cc1OC	24.8 µM (inactive)
COCC(C)NC(=O)CCS(=O)(=O)c1nc(-c2ccc(OC)cc2)cc(C(F)(F)F)n1 (stereo not drawn)	> 55.7 µM (inactive)
CCOC(=O)C(=CNc1cc(C)nn1-c1ccccc1)C(=O)OCC	> 55.7 µM (inactive)
Cc1ccccc1NC(=O)C(=Cc1ccc(C(=O)O)cc1)C(=O)Nc1ccccc1C	> 55.7 µM (inactive)
O=C(c1ccc2c(c1)N(Cc1ccccc1)C(=O)c1ccccc1S2)N1CCCC1	> 55.7 µM (inactive)
O=C(c1ccco1)N1CCN(c2ncnc3c2[nH]c2ccccc23)CC1	> 55.7 µM (inactive)
CCn1c(O)c(/C=N/NC(=O)c2ccncc2)c(=O)n(CC)c1=S	> 55.7 µM (inactive)
CS(=O)(=O)c1nc(-c2ccccc2)cc(C(F)(F)F)n1	20.8 µM (inactive)
Cc1ccc(C(=O)Nc2cccc(N(C)S(C)(=O)=O)c2)cc1S(=O)(=O)Nc1ccccc1	> 55.7 µM (inactive)
CCn1c(=O)c2cc(C(=O)N3CCCC3)sc2c2ccccc21	> 55.7 µM (inactive)
CCOC(=O)CCS(=O)(=O)c1nc(-c2ccccc2)cc(C(F)(F)F)n1	24.2 µM (inactive)
C#Cc1ccc([C@H]2C=C(C(=O)OCC=C)O[C@@H](OCC)[C@@H]2CCCO)cc1	> 55.7 µM (inactive)
Cc1cc(=O)n(C(NC(=O)c2ccccc2)C(=O)c2ccccc2)cn1 (stereo not drawn)	> 55.7 µM (inactive)
O=c1cc(CSc2nc3ccccc3c(=O)[nH]2)c2ccc(O)cc2o1	> 55.7 µM (inactive)
Cn1c(C(=O)N2CCN(c3ccc([N+](=O)[O-])cc3)CC2)cc2c(=O)[nH]c3ccccc3c21	28.7 µM (inactive)
CCOC(=O)N1CCN(C(=O)c2ccc(CSc3ccc(Cl)cc3)cc2)CC1	16.5 µM (inactive)
CCOc1cc(-c2noc(N)c2C#N)cc(OCC)c1OCC	> 55.7 µM (inactive)
